Experimental findings from patent US12630498B2 (Genzyme Corporation, priority 2019, dated 2026) are described below.

In test [1] the target is T1, human Cystic Fibrosis Transmembrane Conductance Regulator (CFTR) harboring the ΔF508 mutation (Homo sapiens, UniProt P13569, DEL508-508).
T1 construct: expressed in transfected cells; host or cells: H441 carcinoma line (G418-selected)
The test is described as follows: H441 cell ΔF508-CFTR-HRP cell surface assay (Emax and EC50). In kind it is cell-based. Particulars: for Emax: NCI-H441, NA = Not active. The gist of the method:
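H441 and 41o- bronchial epithelial cells expressing ΔF508-CFTR with an extracellular-loop-4 HRP tag were treated with a 15-point compound series (24.5–0.001 μM) for two nights, H441 at 27° C, 41o- at 37° C with 0.0005 mg/ml doxycycline. Surface HRP luminescence read; % of maximum VX809 signal and EC50 derived.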

Test [2] deals with T2, CFTR-mediated transepithelial chloride transport in primary human bronchial epithelial cells from a ΔF508 homozygous CF donor (Homo sapiens, UniProt P13569, DEL508-508).
T2 construct: Primary human bronchial epithelial cells from a ΔF508 homozygous CF donor; host or cells: primary CF-HBE cells, ΔF508 homozygous donor
In words: TECC24 recording of CFTR-mediated transepithelial chloride transport in CF-HBE cells (AUC fold over DMSO). In kind it is cell-based. Particulars: test agent 10 μM, 48 hours incubation, AUC of forskolin-stimulated IEQ relative to DMSO. An outline of the steps:
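Primary ΔF508/ΔF508 CF-HBE cells on inserts exposed to test agent in IL-13-containing medium for 48 h at 36.5 °C. Current-clamp VT/TEER recording in pH 7.4 HEPES saline with benzamil 10 μM, forskolin 10 μM, then CFTRinh-172 20 μM. AUC of equivalent Cl⁻ current between forskolin and inhibitor, expressed as ratio over vehicle.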

A word on the EC50: it is the concentration that produces a half-maximal response. Higher therefore signals a need for much substance. As usually defined, the Emax is the greatest response seen or fitted, relative to the assay's reference.

T1 sequence (P13569 with tags, fused parts or gaps DEL508-508): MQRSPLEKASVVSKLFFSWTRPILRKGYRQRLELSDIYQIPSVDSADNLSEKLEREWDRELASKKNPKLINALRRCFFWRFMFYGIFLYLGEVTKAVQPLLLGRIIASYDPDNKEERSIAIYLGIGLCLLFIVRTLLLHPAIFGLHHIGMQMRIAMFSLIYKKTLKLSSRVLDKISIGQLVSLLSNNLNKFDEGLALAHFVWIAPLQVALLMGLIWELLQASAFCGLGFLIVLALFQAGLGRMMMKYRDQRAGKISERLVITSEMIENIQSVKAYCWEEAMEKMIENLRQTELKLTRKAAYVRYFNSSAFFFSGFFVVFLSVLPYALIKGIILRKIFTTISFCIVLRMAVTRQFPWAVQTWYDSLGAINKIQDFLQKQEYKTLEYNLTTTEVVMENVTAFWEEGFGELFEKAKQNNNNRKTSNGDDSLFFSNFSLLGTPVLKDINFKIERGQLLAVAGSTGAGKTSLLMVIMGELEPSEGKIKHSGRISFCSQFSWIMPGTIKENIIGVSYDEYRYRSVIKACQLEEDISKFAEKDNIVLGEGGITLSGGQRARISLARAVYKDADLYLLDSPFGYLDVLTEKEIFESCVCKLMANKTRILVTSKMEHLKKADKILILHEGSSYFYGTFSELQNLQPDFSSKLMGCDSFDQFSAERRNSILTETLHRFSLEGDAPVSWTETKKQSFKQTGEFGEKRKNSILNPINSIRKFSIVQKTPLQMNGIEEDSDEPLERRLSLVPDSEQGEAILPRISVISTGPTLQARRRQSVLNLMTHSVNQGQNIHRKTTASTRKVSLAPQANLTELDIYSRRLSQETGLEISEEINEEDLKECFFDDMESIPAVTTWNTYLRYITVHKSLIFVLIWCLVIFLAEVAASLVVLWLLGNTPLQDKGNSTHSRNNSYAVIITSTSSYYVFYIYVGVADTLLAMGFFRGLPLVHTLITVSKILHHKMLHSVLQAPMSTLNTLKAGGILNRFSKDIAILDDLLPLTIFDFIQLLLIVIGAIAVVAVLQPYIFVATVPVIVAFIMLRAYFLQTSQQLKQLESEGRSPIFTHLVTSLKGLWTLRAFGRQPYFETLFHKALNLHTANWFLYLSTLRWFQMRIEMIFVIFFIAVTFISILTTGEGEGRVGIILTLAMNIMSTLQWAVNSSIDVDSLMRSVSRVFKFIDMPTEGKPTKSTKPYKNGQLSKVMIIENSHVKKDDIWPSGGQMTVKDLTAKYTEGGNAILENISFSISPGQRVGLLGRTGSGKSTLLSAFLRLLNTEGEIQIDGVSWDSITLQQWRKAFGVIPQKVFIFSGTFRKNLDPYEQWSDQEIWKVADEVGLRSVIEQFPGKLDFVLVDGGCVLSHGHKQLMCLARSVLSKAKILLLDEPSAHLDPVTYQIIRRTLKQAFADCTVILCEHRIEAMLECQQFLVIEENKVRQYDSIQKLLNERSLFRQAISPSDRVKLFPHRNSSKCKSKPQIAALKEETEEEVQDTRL
T2 sequence (P13569 with tags, fused parts or gaps DEL508-508): as above

In test [1], `CCC(C)(C)C(NC(=O)c1ccc2ccc(C)cc2c1OCc1ccc(OC(F)(F)F)cc1)C(=O)O` (stereo not shown) [Example 276, 3,3-dimethyl-2-(7-methyl-1-((4-(trifluoromethoxy)benzyl)oxy)-2-naphthamido)pentanoic Acid] registered an EC50 of 300 nM and an Emax of 309%. For the same molecule, the “TECC24 AUC fold over DMSO @10 μM” value in test [2] was “A (“A” refers to AUC @10 uM >6)”.
Taken in the same sequence, the figures for `O=C(N[C@H](C(=O)O)C(c1ccccc1)c1ccccc1)c1ccc2cc(F)ccc2c1OCc1nc2ccccc2s1` [Example 216, (S)-2-(1-(benzo[d]thiazol-2-ylmethoxy)-6-fluoro-2-naphthamido)-3,3-diphenylpropanoic Acid] were 900 nM, 115% and “C (“C” refers to AUC @10 uM <4)”.
In the same order, the values of `CC1(C(NC(=O)c2ccc3cc(F)ccc3c2OCc2ccc(SC(F)(F)F)cc2)C(=O)O)CCCCC1` (stereo not shown) [Example 69, 2-(6-fluoro-1-((4-((trifluoromethyl)thio)benzyl)oxy)-2-naphthamido)-2-(1-methylcyclohexyl)acetic Acid] are 400 nM, 57.7% and “C (“C” refers to AUC @10 uM <4)”.
In turn, `O=C(N[C@@H](Cc1ccccc1)C(=O)O)c1ccc2ccccc2c1OCc1ccccc1C(F)(F)F` [Example 93, (1-((2-(trifluoromethyl)benzyl)oxy)-2-naphthoyl)-L-phenylalanine] came in with an Emax in test [1] of 13.1%. The “TECC24 AUC fold over DMSO @10 μM” value in test [2] is on record as “C (“C” refers to AUC @10 uM <4)”.
Turning to `CC(C)(C)[C@H](NC(=O)c1cc(F)c2ccccc2c1OCc1ccc(C(F)(F)F)cc1)C(=O)O` [Example 64, (S)-2-(4-fluoro-1-((4-(trifluoromethyl)benzyl)oxy)-2-naphthamido)-3,3-dimethylbutanoic Acid], in test [1], the half-maximal effective concentration (EC50) is 600 nM and the maximum response (Emax) came out at 106%. For the same molecule, the “TECC24 AUC fold over DMSO @10 μM” value in test [2] is given as “C (“C” refers to AUC @10 uM <4)”.
Taken in the same sequence, the figures for `C[C@@H](OCc1ccccc1)C(NC(=O)c1ccc2ccccc2c1OCC1CCCCC1)C(=O)O` (stereo partly drawn) [Example 150, (3R)-3-(benzyloxy)-2-(1-(cyclohexylmethoxy)-2-naphthamido)butanoic Acid] were 10900 nM, 82.5% and “C (“C” refers to AUC @10 uM <4)”.
Taken in the same sequence, the figures for `CCC(C)(C)[C@H](NC(=O)c1ccc2ccc(F)cc2c1OCc1ccc(C(F)(F)F)cc1)C(=O)O` [Example 274, (2S)-2-[[7-fluoro-1-[[4-(trifluoromethyl)phenyl]methoxy]naphthalene-2-carbonyl]amino]-3,3-dimethyl-pentanoic Acid] were 200 nM, 195% and “A (“A” refers to AUC @10 uM >6)”.
In the same order, the values of `CC(C)(C)[C@H](NC(=O)c1ccc2cc(F)ccc2c1OCc1ccc(OC(F)(F)F)cc1)C(=O)O` [Example 19, (S)-2-(6-fluoro-1-((4-(trifluoromethoxy)benzyl)oxy)-2-naphthamido)-3,3-dimethylbutanoic Acid] are 21900 nM, 48.3% and “C (“C” refers to AUC @10 uM <4)”.
For `CCC(C)(C)[C@@H](NC(=O)c1ccc2ccc(C)cc2c1OCc1ccc(OC(F)(F)F)cc1)C(=O)O` [Example 312, (R)-3,3-dimethyl-2-(7-methyl-1-((4-(trifluoromethoxy)benzyl)oxy)-2-naphthamido)pentanoic Acid], in test [1], it took 2200 nM to reach a half-maximal effect (EC50) and the Emax was determined as 127%. Further, the “TECC24 AUC fold over DMSO @10 μM” value in test [2] is “B (“B” refers to AUC @10 uM between 4-6)”.
Taken in the same sequence, the figures for `CC(C)(C)[C@@H](NC(=O)c1ccc2ccc(F)cc2c1OCc1ccc(OC(F)(F)F)cc1)C(=O)O` [Example 259, (2R)-2-[[7-fluoro-1-[[4-(trifluoromethoxy)phenyl]methoxy]naphthalene-2-carbonyl]amino]-3,3-dimethyl-butanoic Acid] were 1700 nM, 63.7% and “A (“A” refers to AUC @10 uM >6)”.
Turning to `O=C(N[C@@H](Cc1ccccc1)C(=O)O)c1ccc2ccccc2c1OCCc1ccc(C(F)(F)F)cc1` [Example 97, (1-(4-(trifluoromethyl)phenethoxy)-2-naphthoyl)-L-phenylalanine], the Emax in test [1] was found to be 1.1%. The “TECC24 AUC fold over DMSO @10 μM” value in test [2] is given as “C (“C” refers to AUC @10 uM <4)”.
As to `CC1([C@H](NC(=O)c2ccc3ccc(C(F)(F)F)cc3c2OCc2ccc(C(F)(F)F)cc2)C(=O)O)CCCC1` [Example 301, (S)-2-(1-methylcyclopentyl)-2-(7-(trifluoromethyl)-1-((4-(trifluoromethyl)benzyl)oxy)-2-naphthamido)acetic Acid], in test [1], the midpoint of the response, the EC50, lay at 100 nM and the Emax is 217%. The “TECC24 AUC fold over DMSO @10 μM” value in test [2] is “A (“A” refers to AUC @10 uM >6)”.
In the same order, the values of `CC(C)(C)[C@H](NC(=O)c1ccc2ccccc2c1OCc1nc2ccccc2s1)C(=O)O` [Example 58, (S)-2-(1-(benzo[d]thiazol-2-ylmethoxy)-2-naphthamido)-3,3-dimethylbutanoic Acid] are 2800 nM, 139% and “C (“C” refers to AUC @10 uM <4)”.
In the same order, the values of `CC(C)(C)[C@H](NC(=O)c1ccc2ccc(F)cc2c1OCc1ccc(OC(F)(F)F)cc1)C(=O)O` [Example 239, (S)-2-(7-fluoro-1-((4-(trifluoromethoxy)benzyl)oxy)-2-naphthamido)-3,3-dimethyl Butanoic Acid] are 300 nM, 235% and “A (“A” refers to AUC @10 uM >6)”.
Taken in the same sequence, the figures for `CCC(C)(C)[C@H](NC(=O)c1ccc2ccccc2c1OCc1ccc(SC(F)(F)F)cc1)C(=O)O` [Example 55, (S)-3,3-dimethyl-2-(1-((4-((trifluoromethyl)thio)benzyl)oxy)-2-naphthamido)pentanoic Acid] were 600 nM, 115% and “B (“B” refers to AUC @10 uM between 4-6)”.
With `CC(C)(C)[C@@H](NC(=O)c1ccc2ccc(C(F)F)cc2c1OCc1ccc(OC(F)(F)F)cc1)C(=O)O` [Example 264, (2R)-2-[[7-(difluoromethyl)-1-[[4-(trifluoromethoxy)phenyl]methoxy]naphthalene-2-carbonyl]amino]-3,3-dimethyl-butanoic Acid], in test [1], the EC50 was found to be 1800 nM and the Emax was 70.7%. The “TECC24 AUC fold over DMSO @10 μM” value in test [2] is listed as “B (“B” refers to AUC @10 uM between 4-6)”.
As for `CC(C)(C)[C@H](NC(=O)c1ccc2ccccc2c1OCc1ccc([N+](=O)[O-])cc1)C(=O)O` [Example 231, (2S)-3,3-dimethyl-2-[[1-[(4-nitrophenyl)methoxy]naphthalene-2-carbonyl]amino]butanoic Acid], in test [1], it took 7800 nM to reach a half-maximal effect (EC50) and the Emax is 70.1%. Also, the “TECC24 AUC fold over DMSO @10 μM” value in test [2] is recorded as “C (“C” refers to AUC @10 uM <4)”.
For the molecule `CC(c1ccccc1)C(NC(=O)c1ccc2ccccc2c1OCc1ccc(C(F)(F)F)cc1)C(=O)O` (stereo not shown) [Example 127, 3-phenyl-2-(1-((4-(trifluoromethyl)benzyl)oxy)-2-naphthamido)butanoic Acid], in test [1], the EC50 is 1100 nM and the Emax was found to be 98.5%. For the same molecule, the “TECC24 AUC fold over DMSO @10 μM” value in test [2] is on record as “C (“C” refers to AUC @10 uM <4)”.
In test [1], `CC(C)(c1ccccc1)[C@H](NC(=O)c1ccc2ccccc2c1OCc1ccc(SC(F)(F)F)cc1)C(=O)O` [Example 5, (S)-3-methyl-3-phenyl-2-(1-((4-((trifluoromethyl)thio)benzyl)oxy)-2-naphthamido)butanoic Acid] returned an EC50 of 800 nM and an Emax of 100%. Further, in test [2], the “TECC24 AUC fold over DMSO @10 μM” value is given as “C (“C” refers to AUC @10 uM <4)”.
In test [1], `CC(C)(C)[C@H](NC(=O)c1ccc2ccc(-c3cscn3)cc2c1OCc1ccc(C(F)(F)F)cc1)C(=O)O` [Example 243, (2S)-3,3-dimethyl-2-[[7-thiazol-4-yl-1-[[4-(trifluoromethyl)phenyl]methoxy]naphthalene-2-carbonyl]amino]butanoic Acid] yielded an EC50 of 500 nM and an Emax of 159%. Moreover, in test [2], the “TECC24 AUC fold over DMSO @10 μM” value is listed as “A (“A” refers to AUC @10 uM >6)”.
Taken in the same sequence, the figures for `O=C(N[C@H](C(=O)O)C12CC(C(F)(F)F)(C1)C2)c1ccc2ccccc2c1OCc1ccc(SC(F)(F)F)cc1` [Example 17, (S)-2-(3-(trifluoromethyl)bicyclo[1.1.1]pentan-1-yl)-2-(1-((4-((trifluoromethyl)thio)benzyl)oxy)-2-naphthamido)acetic Acid] were 700 nM, 63.9% and “C (“C” refers to AUC @10 uM <4)”.
In test [1], `CCC(C)(C)[C@H](NC(=O)c1ccc2ccc(C(F)(F)F)cc2c1OCc1ccc(OC(F)(F)F)cc1)C(=O)O` [Example 296, (S)-3,3-dimethyl-2-(1-((4-(trifluoromethoxy)benzyl)oxy)-7-(trifluoromethyl)-2-naphthamido)pentanoic Acid] came in with an EC50 of 200 nM and an Emax of 186%. Moreover, the “TECC24 AUC fold over DMSO @10 μM” value in test [2] is given as “A (“A” refers to AUC @10 uM >6)”.
